In ChEMBL document CHEMBL1777754, “Synthesis and crystallographic analysis of new sulfonamides incorporating NO-donating moieties with potent antiglaucoma action” (Bioorg Med Chem Lett, 2011) one finds Ki, Activity and solubility data, which are given here for 13 molecules.

The structures appear in SMILES notation.

Targets include Carbonic anhydrase 12 (Homo sapiens, UniProt O43570); Carbonic anhydrase 1 (Homo sapiens, UniProt P00915); Carbonic anhydrase 9 (Homo sapiens, UniProt Q16790); Carbonic anhydrase 4 (Homo sapiens, UniProt P22748); Carbonic anhydrase 2 (Homo sapiens, UniProt P00918).
Data set [1] has as its system Oryctolagus cuniculus. In words: Antiglaucoma activity in New Zealand rabbits assessed as inhibition of carbomer-induced ocular hypertension at 2 % in 50 uL administered into eye after 2 to 3 weeks of carbomer challenge (reference value: 34.2 +/- 1.4 mmHg). Format: functional.
A short description of data set [2]: Solubility of the compound in water. The settings on record: buffer. The class given is physicochemical.
Data set [3] concerns Oryctolagus cuniculus. In words: Antiglaucoma activity in New Zealand rabbits assessed as inhibition of carbomer-induced ocular hypertension at 2 % in 50 uL administered into eye after 2 to 3 weeks of carbomer challenge (reference value: 35.3 +/- 1.2 mmHg). Format: functional.

Sequence of Carbonic anhydrase 4 (P22748 whole entry): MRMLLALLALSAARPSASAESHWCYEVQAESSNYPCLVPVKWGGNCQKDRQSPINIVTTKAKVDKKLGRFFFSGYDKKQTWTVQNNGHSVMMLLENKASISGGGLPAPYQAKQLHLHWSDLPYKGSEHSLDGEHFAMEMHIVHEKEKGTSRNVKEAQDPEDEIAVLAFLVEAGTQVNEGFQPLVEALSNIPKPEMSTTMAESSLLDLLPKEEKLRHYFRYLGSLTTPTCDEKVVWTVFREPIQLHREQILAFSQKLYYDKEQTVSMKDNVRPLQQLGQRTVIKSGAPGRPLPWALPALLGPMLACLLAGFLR
Sequence of Carbonic anhydrase 12 (O43570 whole entry): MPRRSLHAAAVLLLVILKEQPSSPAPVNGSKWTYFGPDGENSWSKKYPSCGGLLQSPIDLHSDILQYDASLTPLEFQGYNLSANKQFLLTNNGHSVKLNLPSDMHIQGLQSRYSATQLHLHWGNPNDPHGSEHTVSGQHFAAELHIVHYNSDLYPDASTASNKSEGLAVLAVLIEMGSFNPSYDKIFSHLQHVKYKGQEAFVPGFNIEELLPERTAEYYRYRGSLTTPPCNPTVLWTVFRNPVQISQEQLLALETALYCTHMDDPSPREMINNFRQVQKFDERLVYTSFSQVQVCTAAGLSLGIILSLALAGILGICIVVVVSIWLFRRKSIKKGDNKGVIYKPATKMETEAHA
Sequence of Carbonic anhydrase 1 (P00915 whole entry): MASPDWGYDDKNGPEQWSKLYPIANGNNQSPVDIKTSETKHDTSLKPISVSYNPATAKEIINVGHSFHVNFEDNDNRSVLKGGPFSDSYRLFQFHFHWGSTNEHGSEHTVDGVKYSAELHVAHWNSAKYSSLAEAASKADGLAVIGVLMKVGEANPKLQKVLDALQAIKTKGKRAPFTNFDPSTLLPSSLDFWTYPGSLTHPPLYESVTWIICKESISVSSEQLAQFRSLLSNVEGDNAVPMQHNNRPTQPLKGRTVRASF
Description for Carbonic anhydrase 12: Inhibition of human recombinant CA12 catalytic domain by CO2 hydration assay
Description for Carbonic anhydrase 2: Inhibition of human CA2 by CO2 hydration assay
Description for Carbonic anhydrase 4: Inhibition of human CA4 by CO2 hydration assay
Description for Carbonic anhydrase 9: Inhibition of human recombinant CA9 catalytic domain by CO2 hydration assay

As for `NS(=O)(=O)c1nnc(NS(=O)(=O)c2cccc(C(=O)OCCCCO[N+](=O)[O-])c2)s1`, the Ki (commonly the dissociation constant of the complex between target and ligand, obtained from inhibition or displacement) on Carbonic anhydrase 12 was determined as 31 nM; at Carbonic anhydrase 1 it was 40 nM; at Carbonic anhydrase 9 it was 235 nM; on Carbonic anhydrase 4, 154 nM.

On to `NS(=O)(=O)c1ccc(OCCCO[N+](=O)[O-])cc1`, for which the Ki worked out at 83 nM at Carbonic anhydrase 12; 88 nM at Carbonic anhydrase 2; 587 nM on Carbonic anhydrase 1; 83 nM at Carbonic anhydrase 9; 148 nM on Carbonic anhydrase 4.

On to `NS(=O)(=O)c1ccc(C(=O)OCCCCO[N+](=O)[O-])cc1`, for which the Ki at Carbonic anhydrase 12 was 30 nM; on Carbonic anhydrase 2, 18 nM; on Carbonic anhydrase 1, 189 nM; at Carbonic anhydrase 9, 165 nM; on Carbonic anhydrase 4, 44 nM. The Activity in the data set with Oryctolagus cuniculus [1] is reported as 20.6 mmHg. In data set [2], this molecule returned a solubility of 2%.

As to `NS(=O)(=O)c1ccc(C(=O)OCc2ccc(CO[N+](=O)[O-])cc2)cc1`, the inhibition constant (Ki) came out at 147 nM on Carbonic anhydrase 12; 198 nM on Carbonic anhydrase 2; 242 nM at Carbonic anhydrase 1; 253 nM at Carbonic anhydrase 9; 345 nM at Carbonic anhydrase 4.

In the case of `COc1cc(/C=C/C(=O)OCCCCO[N+](=O)[O-])ccc1OC(=O)c1ccc(S(N)(=O)=O)cc1`, the Ki at Carbonic anhydrase 12 amounted to 19 nM; on Carbonic anhydrase 2, 10 nM; on Carbonic anhydrase 1, 15 nM; on Carbonic anhydrase 9, 11 nM; on Carbonic anhydrase 4, 47 nM. The solubility in data set [2] was greater than 0.3%.

For the molecule `COc1cc(/C=C/C(=O)OCCCCO[N+](=O)[O-])ccc1OC(=O)c1cccc(S(=O)(=O)Nc2nnc(S(N)(=O)=O)s2)c1`, the Ki was found to be 42 nM at Carbonic anhydrase 12; 33 nM on Carbonic anhydrase 2; 137 nM on Carbonic anhydrase 1; 177 nM on Carbonic anhydrase 9; 225 nM on Carbonic anhydrase 4.

Consider `NS(=O)(=O)c1nnc(NS(=O)(=O)c2ccc(C(=O)OCCCCO[N+](=O)[O-])cc2)s1`, for which the Ki on Carbonic anhydrase 12 turned out to be 31 nM; on Carbonic anhydrase 2, 10 nM; on Carbonic anhydrase 1 it was 32 nM; on Carbonic anhydrase 9, 10 nM; on Carbonic anhydrase 4 it was 46 nM.

As to `COc1cc(/C=C/C(=O)OCCCCO[N+](=O)[O-])ccc1OC(=O)c1ccc(S(=O)(=O)Nc2nnc(S(N)(=O)=O)s2)cc1`, the Ki on Carbonic anhydrase 12 stood at 43 nM; on Carbonic anhydrase 2, 14 nM; on Carbonic anhydrase 1 it was 43 nM; at Carbonic anhydrase 9 it was 11 nM; on Carbonic anhydrase 4, 38 nM.

`COc1cc(/C=C/C(=O)OCCCCO[N+](=O)[O-])ccc1OC(=O)CCc1ccc(S(N)(=O)=O)cc1`: the Ki at Carbonic anhydrase 12 came to 87 nM; on Carbonic anhydrase 2 it was 101 nM; on Carbonic anhydrase 1 it was 395 nM; on Carbonic anhydrase 9, 93 nM; at Carbonic anhydrase 4, 139 nM.

For the molecule `NS(=O)(=O)c1ccc(OCCCCO[N+](=O)[O-])cc1`, the Ki on Carbonic anhydrase 12 amounted to 29 nM; on Carbonic anhydrase 2 it was 12 nM; at Carbonic anhydrase 1 it was 41 nM; on Carbonic anhydrase 9, 25 nM; on Carbonic anhydrase 4, 76 nM.

Turning to `NS(=O)(=O)c1ccc(OCCCCCO[N+](=O)[O-])cc1`, the Ki at Carbonic anhydrase 12 worked out at 116 nM; on Carbonic anhydrase 2, 71 nM; at Carbonic anhydrase 1 it was 950 nM; on Carbonic anhydrase 9, 85 nM; on Carbonic anhydrase 4 it was 89 nM.

As to `CCN(CC)CCOC(=O)c1ccc(S(=O)(=O)Nc2nnc(S(N)(=O)=O)s2)cc1`, the Ki at Carbonic anhydrase 2 was found to be 1.4 nM.

With `O=[N+]([O-])O[C@@H]1CO[C@H]2[C@@H]1OC[C@@H]2O` [ISOSORBIDE MONONITRATE], in the data set with Oryctolagus cuniculus [3], the Activity is 28.4 mmHg.
